# Where a name gives a salt, the structure may show the parent alone.
# Target: T1, E. coli RecA protein (Escherichia coli, UniProt P0A7G6)
# T1 construct: purchased Epicentre, Madison, Wis
# Test: High throughput RecA-luciferase assay (ATP remaining after RecA ATPase reaction)
# Format: biochemical
# Conditions: compounds identified from the screen of more than 22,000 compounds
# Experimental: RecA is a DNA-dependent ATPase (i.e., it catalyzes the reaction adenosine triphosphate [ATP]→adenosine diphosphate [ADP]). An assay was developed for RecA ATPase activity based on detection of the amount of ATP remaining in a reaction mixture following incubation of RecA protein, DNA, and ATP. In an exemplary assay, E. coli RecA protein is incubated in reaction buffer with DNA, ATP, and any test compound or compounds for a measured amount of time. The quantity of ATP remaining after the RecA reaction can be quantitated using a subsequent luciferase assay. The luciferase emits more light as more ATP is available. In some embodiments, the amount of ATP remaining can be compared to controls containing either a known inhibitor (full inhibition control) or no test compound (full activity control). In some embodiments, a positive control (having no DNA added to the well) and negative control (having DNA and no compounds) are run with each screen. Positive responses are based upon the percent reduction of activity of luciferase, with a high percentage representing increased RecA inhibition. Percent inhibition can be calculated according to the following equation: […]
# An in vitro RecA-luciferase assay was used to screen for RecA inhibitors. RecA is a DNA-dependent ATPase (i.e., it catalyzes the reaction adenosine triphosphate [ATP]→adenosine diphosphate [ADP]). An assay was developed for RecA ATPase activity based on detection of the amount of ATP remaining in a reaction mixture following incubation of RecA protein, DNA, and ATP. […] The quantity of ATP remaining after the RecA reaction was measured by a subsequent luciferase assay. The luciferase emit more light as more ATP was available.
# For high throughput screening, the following reagents were added to each well of a 384 well plate:
# The reagents were mixed and incubate at room temperature for about 5 minutes. Then, 5.0 μL of ATP mix, as indicated below, were added to each well.
# The mix was incubated at room temperature for about 90-120 minutes. 12.5 μL of Kinase-Glo® plus (Promega) were added to each well and incubated at room temperature for about 10 minutes or more. The luminescence of the reaction was measured.
# A positive control (having no DNA added to the well) and negative control (having DNA and no compounds) were run with each screen. Positive responses were based upon the percent reduction of activity of luciferase, with a high percentage representing increased RecA inhibition. Percent inhibition can be calculated according to the following equation: […]
# T1 sequence (P0A7G6 2-353): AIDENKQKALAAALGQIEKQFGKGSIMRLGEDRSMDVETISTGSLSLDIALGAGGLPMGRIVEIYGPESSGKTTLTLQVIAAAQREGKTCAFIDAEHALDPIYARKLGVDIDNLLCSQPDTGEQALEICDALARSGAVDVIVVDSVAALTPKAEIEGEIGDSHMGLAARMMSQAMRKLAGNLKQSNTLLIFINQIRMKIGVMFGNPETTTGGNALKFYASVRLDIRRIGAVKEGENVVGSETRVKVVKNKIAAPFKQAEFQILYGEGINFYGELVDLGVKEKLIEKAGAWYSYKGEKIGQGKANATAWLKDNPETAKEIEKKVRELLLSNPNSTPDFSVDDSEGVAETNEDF
row,Compound,activity in the RecA-luciferase screen (in words)
1,Oc1c(Cl)cc(Cl)cc1Sc1cc(Cl)cc(Cl)c1O [bithionol],particularly active
2,Nc1c2ccccc2nc2ccccc12 [acrisorcin],particularly active
3,COc1cccc2c1C(=O)c1c(O)c3c(c(O)c1C2=O)C[C@@](O)(C(C)=O)C[C@@H]3O[C@H]1C[C@H](N)[C@H](O)[C@H](C)O1 [daunorubicin hydrochloride],particularly active
4,Cl.Cl.O=C1c2c(O)ccc(O)c2C(=O)c2c(NCCNCCO)ccc(NCCNCCO)c21 [mitoxathrone hydrochloride],particularly active
5,CC[N+](C)(CC)CCC[n+]1c(-c2ccccc2)c2cc(N)ccc2c2ccc(N)cc21.[I-].[I-] [propidium iodide],particularly active
6,COc1cc2cc3c4cc(OC)c(OC)cc4cc[n+]3c(C)c2cc1OC.[Cl-] [coralyne chloride],particularly active
7,Cc1cc(N)c2ccccc2[n+]1CCCCCCCCCC[n+]1c(C)cc(N)c2ccccc21 [dequalinium chloride],particularly active
8,Oc1c(Cl)cc(Cl)c(Cl)c1Cc1c(O)c(Cl)cc(Cl)c1Cl [hexachlorophene],particularly active
9,COc1cc2cc3c4cc(OC)c(OC)cc4cc[n+]3c(C)c2cc1OC.O.[Cl-] [coralyne chloride hydrate],particularly active
10,C[n+]1c2cc(N)ccc2cc2ccc(N)cc21.[Cl-] [acriflavinium hydrochloride],particularly active
11,CCN(CC)CCCC(C)Nc1c2ccc(Cl)cc2nc2ccc(OC)cc12 (stereo not drawn) [quinacrine hydrochloride],particularly active
12,doxorubicin hydrochloride,particularly active
13,Cc1c2ccncc2c(C)c2c1[nH]c1ccccc12 [ellipticine],particularly active
14,CC[n+]1c(-c2ccccc2)c2cc(N)ccc2c2ccc(N)cc21 [homidium bromide],particularly active

# Test system: S. aureus strain S3
# Test: Cell growth assay, first assay (gentamycin potentiation)
# Format: cell-based
# Conditions: gentamycin alone, sublethal concentration 0.3 μg/mL
# Experimental: Cell Growth Assay. This assay measures the ability of cells to grow in the presence of a sublethal dose (i.e., a dose below the MIC) of an antibiotic agent (or test agent, or combination thereof). In general, cells are grown, typically to saturation, and are then diluted and inoculated onto rich medium and onto medium containing a sublethal dose of antibiotic agent. Plates are then grown overnight, and OD600 is measured after overnight growth, as compared with blank plate. If desired, a test agent can be added to the plate, either alone or in combination with the known antibiotic agent, and the ratio of OD600 in the presence of the test agent to OD600 in the absence of the test agent, can be determined. Additional ratios that can be useful as controls include, for example, OD600 in the presence vs. absence of antibiotic agent; OD600 in the absence of any agent vs. in the presence of both antibiotic agent and test agent; etc.
# Actinomycin D Potentiates Gentamycin: In the first assay, S. aureus strain S3 was used in a cell growth assay as described in FIG. 4. The strain was grown in the presence and absence of gentamycin and actinomycin D. Various concentrations of gentamycin and actinomycin D were used. Specifically, 40 μL gentamycin stock (5 mg/mL) was first diluted in 360 μL H2O. Then, 200 μL of the diluted gentamycin solution was further mixed with 200 μL H2O. […]
row,Compound,growth of S. aureus strain S3
1,gentamycin,grew equally well

# Source: US20110015137A1, “RECA INHIBITORS AND THEIR USES AS MICROBIAL INHIBITORS OR POTENTIATORS OF ANTIBIOTIC ACTIVITY” (Trustees of Boston University, priority 2007, published 2011)
